Data as given in the supplement of paper PMC12406974.

Legend:
Test in all cases: maximum observed lethal fraction; higher = more cell death
U2OS BAX/BAK1 DKO = test system: U2OS BAX/BAK1 DKO
U2OS BCL2L12-KO = test system: U2OS BCL2L12-KO
U2OS PTBP1-KO = test system: U2OS PTBP1-KO
U2OS = test system: U2OS
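Further: FLICK assay: SYTOX Green fluorescence of dead cells tracked over time after drugging in 96-well plates, with total cell counts taken from Triton X-100 lysed wells.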

Structure (SMILES)	maximum observed lethal fraction (U2OS BAX/BAK1 DKO; 0.01 µM)	maximum observed lethal fraction (U2OS BAX/BAK1 DKO; 0.0316 µM)	maximum observed lethal fraction (U2OS BAX/BAK1 DKO; 0.1 µM)	maximum observed lethal fraction (U2OS BAX/BAK1 DKO; 0.316 µM)	maximum observed lethal fraction (U2OS BAX/BAK1 DKO; 1 µM)	maximum observed lethal fraction (U2OS BAX/BAK1 DKO; 3.16 µM)	maximum observed lethal fraction (U2OS BAX/BAK1 DKO; 10 µM)	maximum observed lethal fraction (U2OS BCL2L12-KO; 0.01 µM)	maximum observed lethal fraction (U2OS BCL2L12-KO; 0.0316 µM)	maximum observed lethal fraction (U2OS BCL2L12-KO; 0.1 µM)	maximum observed lethal fraction (U2OS BCL2L12-KO; 0.316 µM)	maximum observed lethal fraction (U2OS BCL2L12-KO; 1 µM)	maximum observed lethal fraction (U2OS BCL2L12-KO; 3.16 µM)	maximum observed lethal fraction (U2OS BCL2L12-KO; 10 µM)	maximum observed lethal fraction (U2OS PTBP1-KO; 0.01 µM)	maximum observed lethal fraction (U2OS PTBP1-KO; 0.0316 µM)	maximum observed lethal fraction (U2OS PTBP1-KO; 0.1 µM)	maximum observed lethal fraction (U2OS PTBP1-KO; 0.316 µM)	maximum observed lethal fraction (U2OS PTBP1-KO; 1 µM)	maximum observed lethal fraction (U2OS PTBP1-KO; 3.16 µM)	maximum observed lethal fraction (U2OS PTBP1-KO; 10 µM)	maximum observed lethal fraction (U2OS; 0.01 µM)	maximum observed lethal fraction (U2OS; 0.0316 µM)	maximum observed lethal fraction (U2OS; 0.1 µM)	maximum observed lethal fraction (U2OS; 0.316 µM)	maximum observed lethal fraction (U2OS; 1 µM)	maximum observed lethal fraction (U2OS; 3.16 µM)	maximum observed lethal fraction (U2OS; 10 µM)	maximum observed lethal fraction (U2OS BAX/BAK1 DKO; 31.6 µM)	maximum observed lethal fraction (U2OS BCL2L12-KO; 31.6 µM)	maximum observed lethal fraction (U2OS PTBP1-KO; 31.6 µM)	maximum observed lethal fraction (U2OS; 31.6 µM)	maximum observed lethal fraction (U2OS BAX/BAK1 DKO; 0.001 µM)	maximum observed lethal fraction (U2OS BAX/BAK1 DKO; 0.00316 µM)	maximum observed lethal fraction (U2OS BCL2L12-KO; 0.001 µM)	maximum observed lethal fraction (U2OS BCL2L12-KO; 0.00316 µM)	maximum observed lethal fraction (U2OS PTBP1-KO; 0.001 µM)	maximum observed lethal fraction (U2OS PTBP1-KO; 0.00316 µM)	maximum observed lethal fraction (U2OS; 0.001 µM)	maximum observed lethal fraction (U2OS; 0.00316 µM)
COC(=O)C[C@](O)(CCCC(C)(C)O)C(=O)O[C@@H]1C(OC)=C[C@]23CCCN2CCc2cc4c(cc2[C@H]13)OCO4 [Homoharringtonine]	0.0663	0.099	0.0992	0.106	0.112	0.102	0.106	0.0701	0.0909	0.0937	0.102	0.0962	0.115	0.21	0.0765	0.165	0.0974	0.109	0.186	0.184	0.197	0.0607	0.0942	0.296	0.395	0.578	0.692	0.722	–	–	–	–	–	–	–	–	–	–	–	–
Cc1cc(Nc2ccc(NC(=O)c3ccc(Nc4ccnc5ccccc45)cc3)cc2)nc(N)n1 [SGI-1027]	–	0.0581	0.0592	0.0626	0.104	0.964	1	–	0.0572	0.0566	0.0604	0.902	1	0.984	–	0.0577	0.0687	0.0612	0.208	0.977	1	–	0.0565	0.0566	0.0644	0.414	0.997	1	0.883	0.888	0.886	0.875	–	–	–	–	–	–	–	–
CC(C)[C@]12O[C@H]1[C@@H]1O[C@]13[C@]1(O[C@H]1C[C@H]1C4=C(CC[C@@]13C)C(=O)OC4)[C@@H]2O [Triptolide]	0.0751	0.0882	0.0915	0.0939	0.0919	–	–	0.073	0.378	0.23	0.282	0.309	–	–	0.085	0.24	0.206	0.223	0.286	–	–	0.161	0.621	0.521	0.616	0.638	–	–	–	–	–	–	0.0639	0.067	0.0575	0.0652	0.0668	0.0699	0.0606	0.0621
C#C[C@@]1(O)[C@@H](CO)O[C@@H](n2ccc(N)nc2=O)[C@@H]1O [Ethynylcytidine]	0.0536	0.059	0.0745	0.0801	0.0819	0.0878	0.0906	0.068	0.0771	0.0843	0.0999	0.323	0.706	0.715	0.0691	0.0709	0.0864	0.0904	0.101	0.329	0.244	0.0536	0.0612	0.071	0.0947	0.523	0.868	0.787	–	–	–	–	–	–	–	–	–	–	–	–
NC1(C(=O)N[C@@H](CCO)c2ccc(Cl)cc2)CCN(c2nc[nH]c3nccc2-3)CC1 [Capivasertib]	–	0.0665	0.0661	0.0653	0.0697	0.074	0.078	–	0.0788	0.0816	0.0788	0.0844	0.0929	0.108	–	0.0937	0.0911	0.0962	0.0997	0.111	0.132	–	0.0687	0.066	0.0671	0.0702	0.0868	0.109	0.0858	0.236	0.22	0.201	–	–	–	–	–	–	–	–
CC[C@@]1(O)C(=O)OCc2c1cc1n(c2=O)Cc2cc3c(CN(C)C)c(O)ccc3nc2-1 [Topotecan]	–	0.0741	0.0822	0.0765	0.0845	0.0931	0.0974	–	0.0781	0.0819	0.0871	0.0968	0.208	0.495	–	0.0741	0.0838	0.0808	0.0858	0.106	0.197	–	0.0699	0.0706	0.0756	0.0868	0.233	0.5	0.177	0.798	0.329	0.683	–	–	–	–	–	–	–	–
Cc1c2oc3c(C)ccc(C(=O)N[C@@H]4C(=O)N[C@H](C(C)C)C(=O)N5CCC[C@H]5C(=O)N(C)CC(=O)N(C)[C@@H](C(C)C)C(=O)O[C@@H]4C)c3nc-2c(C(=O)N[C@@H]2C(=O)N[C@H](C(C)C)C(=O)N3CCC[C@H]3C(=O)N(C)CC(=O)N(C)[C@@H](C(C)C)C(=O)O[C@@H]2C)c(N)c1=O [Actinomycin-D]	0.0792	0.088	0.0799	0.0933	0.0822	–	–	0.648	0.35	0.254	0.406	0.377	–	–	0.311	0.206	0.243	0.368	0.328	–	–	0.505	0.545	0.4	0.637	0.578	–	–	–	–	–	–	0.0757	0.0754	0.101	0.199	0.0967	0.164	0.0789	0.0968
